Reference: US20090092662A1, “LIPOSOME FORMULATIONS OF BORONIC ACID COMPOUNDS” (priority 2007, published 2009)
Like-named read-outs stand apart in the source and are kept apart here.

Assays:
[1] = ITC drug binding study of complexing reagents to bortezomib; conditions: pH 9.5, 100 mM glycine, 30° C., bortezomib titrated into complexing reagent
Experimental: The binding of the various complexing reagents to bortazomib were investigated by isothermal titration calorimetry (VP-ITC, MicroCal, Northampton, Mass.) under controlled parameters. […] The pH level was checked twice and adjustments were made as necessary to within 0.2 units. The solutions were degassed for 10-15 min. […] The experiments were conducted at 30° C. […] Data processing to generate the binding parameters was performed using the software program provided by the ITC manufacture (Microcal origin v5.0).

[2] = tested on: tumor lines; conditions: range of tumor lines, NCI in vitro screen; cited from earlier work
[3] = cited from earlier work
[4] = tested on: lung cancer xenograft; conditions: lung cancer xenograft model; cited from earlier work
[5] = tested on: human prostate cancer xenograft; conditions: human prostate xenograft model; cited from earlier work

SMILES | K [1] [mol⁻¹] | cytotoxicity [2] | maximum tolerated dose ([3]; intravenous bolus on days 1, 4, 8, and 11 of a 3-week cycle) [mg/m^2] | maximum tolerated dose ([3]; intravenously once or twice weekly, patients with solid tumors) [mg/m^2] | antitumor activity [4] | antitumor activity [5]
OCC(O)CNCC(O)C(O)C(OC1OC(CO)C(O)C(O)C1O)C(O)CO (stereo not drawn) [Example 5] | 2366 |  |  |  |  | 
CC(C)C[C@H](NC(=O)[C@H](Cc1ccccc1)NC(=O)c1cnccn1)B(O)O [bortezomib] |  | showed cytotoxicity against a range of tumor lines | 1.56 | 1.3 | had antitumor activity | had antitumor activity
